Among the data in PubChem BioAssay (NCI) are GI50 and TGI values, retold here.

Test systems include SNB-75 CNS; UACC-62 melanoma; EKVX NSCLC; SF-268 CNS; LOX IMVI melanoma; HL-60(TB) leukemia; HOP-92 NSCLC; MDA-MB-231 breast; OVCAR-5 ovarian; OVCAR-8 ovarian.
Assay in all cases: DTP human tumour cell line panel, 48 h

Values joined by “and” are separate entries in the source; they are usually repeats but may differ in a detail not shown here. Equal entries are not always repeated.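 Growth conditions: 96-well plates. Treatment: test compound, 48 hours, 5 concentrations. Analysis: linear interpolation between bracketing concentrations; unreached endpoints set to highest concentration. GI50 is the concentration that inhibits growth by half. TGI: total growth inhibition.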

As a reminder, the GI50 is the concentration at which growth is held to half of that of the control. As a reminder, the TGI is the concentration giving total growth inhibition. Read a low TGI as more potent growth arrest. As to `COC(=O)c1cc2c(cc1Cl)SC(N(N(C)C)S(=O)(=O)c1ccc(Br)s1)=NS2(=O)=O`, the GI50 in the assay with SNB-75 CNS is 30.5 µM; in the assay with UACC-62 melanoma it was 21.4 µM; in the assay on EKVX NSCLC, 25.3 µM; in the assay with SF-268 CNS, 27.4 µM; in the assay with LOX IMVI melanoma, 17.5 µM; in the assay with HL-60(TB) leukemia, 19.6 µM. Besides, the values for the GI50 in the assay with HOP-92 NSCLC, in the assay on MDA-MB-231 breast and in the assay with OVCAR-5 ovarian were 18.5 µM, 20.3 µM and 29.8 µM, respectively. Moreover, the TGI in the assay with SNB-75 CNS was found to be 88.7 µM; with UACC-62 melanoma it was 50.6 µM; with EKVX NSCLC, 61 µM; in the assay with SF-268 CNS, 67.3 µM; in the assay on LOX IMVI melanoma, 31.8 µM; in the assay on HL-60(TB) leukemia, 44.5 µM. Besides, the TGI was found to be 36.7 µM in the assay with HOP-92 NSCLC, 43.9 µM with MDA-MB-231 breast and 81.1 µM with OVCAR-5 ovarian.

For the compound `CC(=O)Nc1ccc(C(=O)NN2C(=O)C(Cl)C2c2ccc(Cl)cc2)cc1` (centres undefined), the concentration for total growth inhibition (TGI) with SNB-75 CNS is 30.9 µM; with UACC-62 melanoma, above 100 µM; with OVCAR-8 ovarian, above 100 µM; in the assay on EKVX NSCLC it was above 100 µM; in the assay with SF-268 CNS it was above 86.3 µM; in the assay on HL-60(TB) leukemia it was above 100 µM. In addition, the TGI in the assay on HOP-92 NSCLC was 82.1 µM; in the assay with MDA-MB-231 breast, 70.3 µM; in the assay with OVCAR-5 ovarian, above 100 µM.

On to `C=C1C(=O)C23CC1C[C@H](OC(C)=O)[C@H]2C1(C)C(OC(C)=O)C[C@H](O)C(C)(C)[C@H]1C(=O)[C@@H]3OC(C)=O` (some centres undefined), for which the TGI in the assay with SNB-75 CNS was determined as 32.8 µM; in the assay with UACC-62 melanoma, 9.51 µM; in the assay with OVCAR-8 ovarian, 7.9 µM; in the assay on EKVX NSCLC, 15.7 µM; in the assay on SF-268 CNS, 25.3 µM; in the assay with LOX IMVI melanoma, 10.3 µM. Also, the concentration for total growth inhibition (TGI) in the assay with HL-60(TB) leukemia worked out at 4.47 µM; in the assay on HOP-92 NSCLC, 7.84 µM; in the assay with MDA-MB-231 breast, 11.7 µM; with OVCAR-5 ovarian, 22.5 µM.

`O=c1c2cc(Cl)ccc2oc2ccc(OCCCCCN3CCCCC3)cc12`: the GI50 in the assay on SNB-75 CNS is 7.44 µM; in the assay with UACC-62 melanoma, 1.01 µM; in the assay on OVCAR-8 ovarian it was 6.09 µM; in the assay with EKVX NSCLC, 6.25 µM; in the assay with SF-268 CNS, 5.28 µM; with LOX IMVI melanoma, 0.967 µM. Also, the GI50 in the assay with HL-60(TB) leukemia was 6.24 µM; with HOP-92 NSCLC it was 3.55 µM; in the assay with MDA-MB-231 breast, 3.15 µM; in the assay on OVCAR-5 ovarian it was 5.17 µM. The TGI in the assay on SNB-75 CNS came to 14 µM; in the assay with UACC-62 melanoma it was 2.06 µM; in the assay on OVCAR-8 ovarian, 14.2 µM; in the assay with EKVX NSCLC, 13.2 µM; in the assay on SF-268 CNS, 12.2 µM; in the assay on LOX IMVI melanoma, 2.12 µM. Besides, the TGI in the assay with HL-60(TB) leukemia was determined as 15.4 µM; in the assay on HOP-92 NSCLC it was 10.3 µM; in the assay on MDA-MB-231 breast, 9.77 µM; in the assay on OVCAR-5 ovarian, 11.2 µM.

With `Cc1cc(C)c([O-])c(CN(C)CCN(C)Cc2cc(C)cc(C)c2[O-])c1.O=C([O-])c1cccc(C(=O)[O-])n1.[Ti+4]`, the GI50 with SNB-75 CNS is 1.67 µM; in the assay with OVCAR-8 ovarian, 2.8 µM; with EKVX NSCLC, 3.4 µM; in the assay with SF-268 CNS, 3.91 µM; in the assay with HL-60(TB) leukemia, 1.69 µM; in the assay with HOP-92 NSCLC it was 2.51 µM. Further, the GI50 in the assay on MDA-MB-231 breast was 3.42 µM; in the assay on OVCAR-5 ovarian, 2.31 µM. The TGI in the assay on SNB-75 CNS was 5.65 µM; in the assay on OVCAR-8 ovarian, above 100 µM; in the assay with EKVX NSCLC it was above 100 µM; in the assay with SF-268 CNS it was above 100 µM; with HL-60(TB) leukemia, 5.56 µM; with HOP-92 NSCLC it was 6.47 µM. Besides, the TGI in the assay with MDA-MB-231 breast and with OVCAR-5 ovarian was above 100 µM in each case.

On to `CCN(CC)CC(O)CNc1ccc(NCC2CO2)c2c1C(=O)c1ccccc1C2=O` (centres undefined), for which the TGI in the assay with SNB-75 CNS was 4.29 µM; in the assay with UACC-62 melanoma it was 2.3 µM; in the assay with OVCAR-8 ovarian, 1.32 µM; in the assay with EKVX NSCLC, 4.72 µM; in the assay on SF-268 CNS it was 0.683 µM; in the assay on LOX IMVI melanoma, 0.0392 µM and 0.0576 µM. For the same compound, the figures for the TGI with HOP-92 NSCLC, in the assay on MDA-MB-231 breast and with OVCAR-5 ovarian were 6.39 µM, 3.01 µM and 7.76 µM, respectively. Besides, the values for the GI50 in the assay on UACC-62 melanoma, in the assay with LOX IMVI melanoma and in the assay on HL-60(TB) leukemia were 0.426 µM, 0.00454 µM and 0.00216 µM, respectively.

In the case of `CSc1nc(C)c2c(n1)SCC2`, the TGI in the assay on SNB-75 CNS, in the assay with UACC-62 melanoma, in the assay with OVCAR-8 ovarian, with EKVX NSCLC, with SF-268 CNS and in the assay on LOX IMVI melanoma was above 10 µM throughout. Besides, the TGI with HL-60(TB) leukemia, in the assay on HOP-92 NSCLC, with MDA-MB-231 breast and in the assay with OVCAR-5 ovarian was above 10 µM throughout.

`COc1ccc([N+](=O)[O-])c2c(NCCCN(C)C)c3ccccc3nc12`: the TGI with SNB-75 CNS is 0.802 µM; in the assay with UACC-62 melanoma, 0.285 µM; in the assay on OVCAR-8 ovarian, 4.9 µM; in the assay on EKVX NSCLC, 0.557 µM; in the assay with SF-268 CNS, 3.44 µM; in the assay with LOX IMVI melanoma, 5.11 µM. The TGI in the assay with HL-60(TB) leukemia stood at 3.8 µM; in the assay with HOP-92 NSCLC it was 0.4 µM; in the assay on MDA-MB-231 breast it was 2.31 µM; in the assay with OVCAR-5 ovarian, 0.984 µM.

For the compound `CCN(CC)c1cc2c3c(c1)CCCN3CCC2`, the concentration for total growth inhibition (TGI) with SNB-75 CNS, in the assay with UACC-62 melanoma, in the assay on OVCAR-8 ovarian, with EKVX NSCLC, with SF-268 CNS and in the assay on LOX IMVI melanoma was above 10 µM throughout. The TGI in the assay with HL-60(TB) leukemia, in the assay with HOP-92 NSCLC and with MDA-MB-231 breast was above 10 µM in each case.

`Cc1nc2sc(C(=O)Nc3cccc(Cl)c3C)c(N)c2cc1C(=O)/C=C/c1ccccc1`: the 50% growth inhibitory concentration (GI50) in the assay on SNB-75 CNS is 0.217 µM; in the assay with UACC-62 melanoma it was 0.303 µM; in the assay with OVCAR-8 ovarian it was 0.543 µM; with EKVX NSCLC, 1.12 µM; with SF-268 CNS, 0.938 µM; in the assay with LOX IMVI melanoma, 0.188 µM. For the same compound, the GI50 in the assay on HL-60(TB) leukemia was 0.575 µM; in the assay on HOP-92 NSCLC, 0.371 µM; in the assay with MDA-MB-231 breast, 0.786 µM; in the assay on OVCAR-5 ovarian it was 0.714 µM. For the same compound, the TGI in the assay with SNB-75 CNS was 5.45 µM; in the assay on UACC-62 melanoma it was 1.91 µM; with OVCAR-8 ovarian, above 14.3 µM; in the assay on EKVX NSCLC, 5.69 µM; in the assay on SF-268 CNS, 5.15 µM; with LOX IMVI melanoma, 0.711 µM. Also, the TGI in the assay with HL-60(TB) leukemia is 2.13 µM; in the assay on HOP-92 NSCLC, 2.11 µM; in the assay with MDA-MB-231 breast it was 2.26 µM; with OVCAR-5 ovarian it was 1.74 µM.
